In ChEMBL document CHEMBL1151296, “Ipomopsin, a New Biscoumarin from Ipomopsis aggregata” (J Nat Prod, 1984):
Active and inactive are the calls of the source. No cut-off for these calls is given here.

Assays:
P388 = assay: Cytotoxicity against mouse P388 cells; format: functional, cell-based
KB = assay: Cytotoxicity against human KB cells; format: functional, cell-based

COc1cc2cc(-c3c(O)c(OC)cc4ccc(=O)oc34)c(=O)oc2cc1O
Activity (P388): inactive
Activity (KB): inactive
